These results are taken from US20070037194A1, “Allelic variation in the serotonin transporter (SERT) as an indicator of autism” (priority 2005, published 2007).

SMILES strings stand for the structures.

One test relates to SERT Ala56. The format is cell-based, human. The settings on record: homozygous Ala56 cells preincubated for various times at 37° C. with 10 μM 8BrcGMP. On the procedure: (§1) Homozygous Ala56 cells (10^6/tube) were preincubated for various times at 37° C. with 10 μM 8BrcGMP prior to [^3H]5-HT transport assays.
(§2) Functional Analysis of Gly56Ala Activity and Regulation. EBV-transformed lymphocyte cell lines from AGRE or Tufts/Vanderbilt autism families carrying either the Gly56 or 56Ala alleles were obtained from the NIMH Human Genetics Initiative Repository (www.nimhgenetics.org/) at Rutgers University. […] Lymphocytes were pelleted at 1500 rpm, 5 min and washed with KRH assay buffer. A total of 1×10^6 cells in triplicate were pre-warmed (37° C.) in a shaking water bath (10 min) in 12×75 polypropylene tubes in KRH buffer containing 100 μM pargyline and 100 μM ascorbic acid. After a 5-min incubation with [^3H]5-HT (20 nM) at 37° C., uptake assays were terminated by immersion on ice, and uptake in pelleted, 1% SDS-extracted cells quantitated by scintillation spectrometry. Specific 5-HT uptake was determined by subtracting the amount of [^3H]5-HT accumulated in the presence of 10 μM paroxetine (SmithKline Beecham). [^3H]L-glutamate transport assays were conducted as described for [^3H]5-HT except using 100 nM substrate and defining nonspecific uptake with parallel accumulation acquired at 4° C.

The next test relates to Gly56 SERT. The format is cell-based, human. The settings on record: coincubation with PKG inhibitor H8 at 10 μM; data not shown. How it is done: as §1, §2

Take `Nc1nc2c(nc(Br)n2[C@@H]2O[C@@H]3COP(=O)(O)O[C@H]3[C@H]2O)c(=O)[nH]1` [8BrcGMP]: the “sensitivity of SERT Ala56 [3H]5-HT transport to 8BrcGMP” value with SERT Ala56 is “lacks sensitivity”.

For the compound `CNCCNS(=O)(=O)c1cccc2cnccc12` [H8], in the test with Gly56 SERT, the “block of 8BrcGMP effects on Gly56 SERT” value was “completely blocked”.
